The supplement of paper PMC10307832

Key:
Assay in all cases: relative viability (nuclei count vs DMSO), 5 days (fraction); higher = more cells survive
[1] = compound: N#CC[C@H](C1CCCC1)n1cc(-c2ncnc3[nH]ccc23)cn1 [Ruxolitinib] + COc1cc2c(Oc3ccc(NC(=O)C4(C(=O)Nc5ccc(F)cc5)CC4)cc3F)ccnc2cc1OCCCN1CCOCC1 [Foretinib] (partner 0.25 µM)
In short: (§1)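 A single step with final 0.05% Triton X-100, 1% formaldehyde and 1 ug/ml Hoechst fixed the cells and stained nuclei 5 days after treatment. Lung cancer cell lines in 1536-well plates had been treated by pin tool the day after seeding with one drug alone or a fixed anchor-drug dose plus five library-drug doses (not always all listed) in √10 steps, and nuclei were counted on 4× images. Relative viability is the ratio of nuclei in treated wells to nuclei in vehicle wells, taken as the median of duplicate plates.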

[2] = compound: N#CC[C@H](C1CCCC1)n1cc(-c2ncnc3[nH]ccc23)cn1 [Ruxolitinib] + Nc1nc2[nH]cc(CCc3ccc(C(=O)N[C@@H](CCC(=O)O)C(=O)O)cc3)c2c(=O)[nH]1 [Pemetrexed] (partner 0.2 µM)
In short: as §1

[3] = compound: N#CC[C@H](C1CCCC1)n1cc(-c2ncnc3[nH]ccc23)cn1 [Ruxolitinib] + Cc1nc(Nc2ncc(C(=O)Nc3c(C)cccc3Cl)s2)cc(N2CCN(CCO)CC2)n1 [Dasatinib] (partner 0.075 µM)
In short: as §1

[4] = compound: N#CC[C@H](C1CCCC1)n1cc(-c2ncnc3[nH]ccc23)cn1 [Ruxolitinib] + CC1(C)CCC(c2ccc(Cl)cc2)=C(CN2CCN(c3ccc(C(=O)NS(=O)(=O)c4ccc(N[C@H](CCN5CCOCC5)CSc5ccccc5)c(S(=O)(=O)C(F)(F)F)c4)cc3)CC2)C1 [Navitoclax] (partner 0.5 µM)
In short: as §1

Work on HCC-78 yielded a relative viability ([1]; first compound 0.08 µM) of 0.501, a relative viability ([1]; first compound 0.253 µM) of 0.568 and a relative viability ([1]; first compound 0.8 µM) of 0.599. It also gave a relative viability ([1]; first compound 2.53 µM) of 0.554, a relative viability ([1]; first compound 8 µM) of 0.515 and a relative viability ([2]; first compound 0.08 µM) of 0.919. The relative viability ([2]; first compound 0.253 µM) was 0.952, the relative viability ([2]; first compound 0.8 µM) was 0.857 and the relative viability ([2]; first compound 2.53 µM) was 0.892. The relative viability ([2]; first compound 8 µM) was 0.955, the relative viability ([3]; first compound 0.08 µM) was 0.39 and the relative viability ([3]; first compound 0.253 µM) was 0.319. The relative viability ([3]; first compound 0.8 µM) was 0.387, the relative viability ([3]; first compound 2.53 µM) was 0.354 and the relative viability ([3]; first compound 8 µM) was 0.323. For the same cell line, the relative viability ([4]; first compound 0.08 µM) was 0.663, the relative viability ([4]; first compound 0.253 µM) was 0.528 and the relative viability ([4]; first compound 0.8 µM) was 0.692. The relative viability ([4]; first compound 2.53 µM) was 0.604 and the relative viability ([4]; first compound 8 µM) was 0.702.
With HCC-366 the relative viability ([1]; first compound 0.08 µM) was 0.934, the relative viability ([1]; first compound 0.253 µM) was 0.855 and the relative viability ([1]; first compound 0.8 µM) was 1.07. The relative viability ([1]; first compound 2.53 µM) was 0.915, the relative viability ([1]; first compound 8 µM) was 0.744 and the relative viability ([2]; first compound 0.08 µM) was 0.162. For the same cell line, the relative viability ([2]; first compound 0.253 µM) was 0.193, the relative viability ([2]; first compound 0.8 µM) was 0.155 and the relative viability ([2]; first compound 2.53 µM) was 0.192. For the same cell line, the relative viability ([2]; first compound 8 µM) was 0.147, the relative viability ([3]; first compound 0.08 µM) was 0.646 and the relative viability ([3]; first compound 0.253 µM) was 0.547. The relative viability ([3]; first compound 0.8 µM) was 0.595, the relative viability ([3]; first compound 2.53 µM) was 0.431 and the relative viability ([3]; first compound 8 µM) was 0.52. The relative viability ([4]; first compound 0.08 µM) was 1.14, the relative viability ([4]; first compound 0.253 µM) was 1.05 and the relative viability ([4]; first compound 0.8 µM) was 1.05. The relative viability ([4]; first compound 2.53 µM) was 0.965 and the relative viability ([4]; first compound 8 µM) was 0.993.
HCC-827 showed a relative viability ([1]; first compound 0.253 µM) of 0.764, a relative viability ([1]; first compound 0.8 µM) of 0.755 and a relative viability ([1]; first compound 2.53 µM) of 0.918. The relative viability ([1]; first compound 8 µM) was 0.811, the relative viability ([2]; first compound 0.253 µM) was 0.249 and the relative viability ([2]; first compound 0.8 µM) was 0.231. It also gave a relative viability ([2]; first compound 2.53 µM) of 0.258, a relative viability ([2]; first compound 8 µM) of 0.274 and a relative viability ([3]; first compound 0.08 µM) of 0.133. For the same cell line, the relative viability ([3]; first compound 0.253 µM) was 0.3, the relative viability ([3]; first compound 0.8 µM) was 0.346 and the relative viability ([3]; first compound 2.53 µM) was 0.231. For the same cell line, the relative viability ([3]; first compound 8 µM) was 0.199, the relative viability ([4]; first compound 0.253 µM) was 0.863 and the relative viability ([4]; first compound 0.8 µM) was 0.908. For the same cell line, the relative viability ([4]; first compound 2.53 µM) was 0.857 and the relative viability ([4]; first compound 8 µM) was 0.845.
Work on HOP-62 yielded a relative viability ([1]; first compound 0.08 µM) of 1.16, a relative viability ([1]; first compound 0.253 µM) of 1.07 and a relative viability ([1]; first compound 0.8 µM) of 1.16. The relative viability ([1]; first compound 2.53 µM) was 1.11, the relative viability ([1]; first compound 8 µM) was 1.09 and the relative viability ([2]; first compound 0.08 µM) was 0.324. It also gave a relative viability ([2]; first compound 0.253 µM) of 0.363, a relative viability ([2]; first compound 0.8 µM) of 0.299 and a relative viability ([2]; first compound 2.53 µM) of 0.314. For the same cell line, the relative viability ([2]; first compound 8 µM) was 0.323, the relative viability ([3]; first compound 0.08 µM) was 0.698 and the relative viability ([3]; first compound 0.253 µM) was 0.588. It also gave a relative viability ([3]; first compound 0.8 µM) of 0.739, a relative viability ([3]; first compound 2.53 µM) of 0.557 and a relative viability ([3]; first compound 8 µM) of 0.342. It also gave a relative viability ([4]; first compound 0.08 µM) of 1.02, a relative viability ([4]; first compound 0.253 µM) of 1.17 and a relative viability ([4]; first compound 0.8 µM) of 1.11. The relative viability ([4]; first compound 2.53 µM) was 1 and the relative viability ([4]; first compound 8 µM) was 1.11.
Cell Line IA-LM has a relative viability ([1]; first compound 0.08 µM) of 1.04, a relative viability ([1]; first compound 0.253 µM) of 1.19 and a relative viability ([1]; first compound 0.8 µM) of 1.34. The relative viability ([1]; first compound 2.53 µM) was 1.22, the relative viability ([1]; first compound 8 µM) was 0.885 and the relative viability ([4]; first compound 0.08 µM) was 0.821. It also gave a relative viability ([4]; first compound 0.253 µM) of 0.85, a relative viability ([4]; first compound 0.8 µM) of 0.913 and a relative viability ([4]; first compound 2.53 µM) of 0.743. For the same cell line, the relative viability ([4]; first compound 8 µM) was 0.395.
LC-2-ad was tested, and the relative viability ([1]; first compound 0.253 µM) was 0.743, the relative viability ([1]; first compound 0.8 µM) was 0.977 and the relative viability ([1]; first compound 2.53 µM) was 0.746. The relative viability ([1]; first compound 8 µM) was 0.64, the relative viability ([2]; first compound 0.08 µM) was 0.287 and the relative viability ([2]; first compound 0.253 µM) was 0.306. For the same cell line, the relative viability ([2]; first compound 0.8 µM) was 0.306, the relative viability ([2]; first compound 2.53 µM) was 0.26 and the relative viability ([2]; first compound 8 µM) was 0.272. It also gave a relative viability ([3]; first compound 0.253 µM) of 0.476, a relative viability ([3]; first compound 0.8 µM) of 0.54 and a relative viability ([3]; first compound 2.53 µM) of 0.382. The relative viability ([3]; first compound 8 µM) was 0.272, the relative viability ([4]; first compound 0.08 µM) was 0.376 and the relative viability ([4]; first compound 0.253 µM) was 0.435. For the same cell line, the relative viability ([4]; first compound 0.8 µM) was 0.444, the relative viability ([4]; first compound 2.53 µM) was 0.257 and the relative viability ([4]; first compound 8 µM) was 0.243.
With LCLC-97TM1 the relative viability ([1]; first compound 0.08 µM) was 0.848, the relative viability ([1]; first compound 0.253 µM) was 0.753 and the relative viability ([1]; first compound 0.8 µM) was 0.826. The relative viability ([1]; first compound 2.53 µM) was 0.834, the relative viability ([1]; first compound 8 µM) was 0.889 and the relative viability ([2]; first compound 0.08 µM) was 0.21. It also gave a relative viability ([2]; first compound 0.253 µM) of 0.21, a relative viability ([2]; first compound 0.8 µM) of 0.184 and a relative viability ([2]; first compound 2.53 µM) of 0.175. The relative viability ([2]; first compound 8 µM) was 0.147, the relative viability ([3]; first compound 0.08 µM) was 0.912 and the relative viability ([3]; first compound 0.253 µM) was 0.731. It also gave a relative viability ([3]; first compound 0.8 µM) of 0.712, a relative viability ([3]; first compound 2.53 µM) of 0.62 and a relative viability ([3]; first compound 8 µM) of 0.623. The relative viability ([4]; first compound 0.08 µM) was 0.459, the relative viability ([4]; first compound 0.253 µM) was 0.384 and the relative viability ([4]; first compound 0.8 µM) was 0.537. The relative viability ([4]; first compound 2.53 µM) was 0.492 and the relative viability ([4]; first compound 8 µM) was 0.354.
Work on LCLC-103H yielded a relative viability ([1]; first compound 0.08 µM) of 0.808, a relative viability ([1]; first compound 0.253 µM) of 0.672 and a relative viability ([1]; first compound 0.8 µM) of 0.881. It also gave a relative viability ([1]; first compound 2.53 µM) of 0.71, a relative viability ([1]; first compound 8 µM) of 0.661 and a relative viability ([2]; first compound 0.08 µM) of 0.454. The relative viability ([2]; first compound 0.253 µM) was 0.474, the relative viability ([2]; first compound 0.8 µM) was 0.45 and the relative viability ([2]; first compound 2.53 µM) was 0.46. The relative viability ([2]; first compound 8 µM) was 0.455, the relative viability ([3]; first compound 0.08 µM) was 0.418 and the relative viability ([3]; first compound 0.253 µM) was 0.448. For the same cell line, the relative viability ([3]; first compound 0.8 µM) was 0.564, the relative viability ([3]; first compound 2.53 µM) was 0.382 and the relative viability ([3]; first compound 8 µM) was 0.362.
For LK-2, the relative viability ([1]; first compound 0.08 µM) was 1.15, the relative viability ([1]; first compound 0.253 µM) was 1.45 and the relative viability ([1]; first compound 0.8 µM) was 1.46. For the same cell line, the relative viability ([1]; first compound 2.53 µM) was 1.29, the relative viability ([1]; first compound 8 µM) was 1.34 and the relative viability ([2]; first compound 0.08 µM) was 0.291. The relative viability ([2]; first compound 0.253 µM) was 0.276, the relative viability ([2]; first compound 0.8 µM) was 0.308 and the relative viability ([2]; first compound 2.53 µM) was 0.234. It also gave a relative viability ([2]; first compound 8 µM) of 0.29, a relative viability ([3]; first compound 0.08 µM) of 0.287 and a relative viability ([3]; first compound 0.253 µM) of 0.339. For the same cell line, the relative viability ([3]; first compound 0.8 µM) was 0.332, the relative viability ([3]; first compound 2.53 µM) was 0.32 and the relative viability ([3]; first compound 8 µM) was 0.349. The relative viability ([4]; first compound 0.253 µM) was 0.719, the relative viability ([4]; first compound 0.8 µM) was 1.11 and the relative viability ([4]; first compound 2.53 µM) was 0.9. For the same cell line, the relative viability ([4]; first compound 8 µM) was 0.708.
